Laboratory results as given in patent publication US20010006697A1, “Composition and method for producing low cholesterol eggs” (priority 1997, published 2001).
Entries after “also recorded” stand apart in the source; their conditions may differ. Marks after values point to notes of the source that are not given here.

Experiments:
laying hens [1] = assay: Liver cholesterol content; settings: day 35
[2] = Liver weight of statin-treated laying hens; settings: day 35
[3] = system: apolipoprotein B (apoB) mRNA; assay: Northern blot of liver mRNA: apoB; format: in vivo, White Leghorn hens; settings: normalized by 18S rRNA; day 35
Excerpt: Endocrinol. […] Endocrinol.

laying hens [4] = assay: Yolk cholesterol contents of eggs from statin-treated laying hens; format: in vivo, White Leghorn hens; settings: for less total yolk cholesterol than control eggs: week 2, per yolk
Experimental: Agric. […] Hens were treated as described in Example 1. […] The eggs were hard-cooked, and the yolks were separated, weighed, and crumbled. […] Agric. […] Egg homogenate filtrates were analyzed for cholesterol as described in Rudel, L. L. and Morris, M. D., J. Lipid Res. 14:364-366 (1973).

laying hens [5] = assay: Egg production, egg weights and yolk weights of statin-treated laying hens; format: in vivo, White Leghorn hens
Experimental: Hens were treated as described in Example 1. Egg yolk was weighed as outlined in Example 2.

[6] = 0.03% of diet, Week 1, listed as atorvastatin
[7] = 0.06% of diet, Week 1, listed as atorvastatin
[8] = 0.06% of diet, week 5 (maximal reduction for simvastatin, lovastatin)
[9] = 0.03% of diet, Overall (weeks 1-5)
[10] = 0.06% of diet, Overall (weeks 1-5)

SMILES: CC(C)c1c(C(=O)Nc2ccccc2)c(-c2ccccc2)c(-c2ccc(F)cc2)n1CC[C@@H](O)C[C@@H](O)CC(=O)O [Atorvastatin, (ΔR,δR)-2-(p-fluorophenyl)-β,δ-dihydroxy-5-isopropyl-3-phenyl-4-(phenylcarbamoyl)pyrrole-1-heptanoic acid]
- Liver Cholesterol mg/g liver (laying hens [1]; 0.03% of diet): 2.8 ± 0.05^c mg/g liver
- Liver Cholesterol mg/liver (laying hens [1]; 0.03% of diet): 87.4 ± 2.2^a mg/liver
- Liver Cholesterol mg/g liver (laying hens [1]; 0.06% of diet): 2.5 ± 0.07^d mg/g liver
- Liver Cholesterol mg/liver (laying hens [1]; 0.06% of diet): 89.7 ± 5.2^a mg/liver
- Liver Weight g ([2]; 0.03% of diet): 30.9 ± 1.2^b g
- Liver Weight g/100 g BW ([2]; 0.03% of diet): 1.82 ± 0.05^a,b g/100 g BW
- Liver Weight g ([2]; 0.06% of diet): 35.3 ± 2.3^a g
- Liver Weight g/100 g BW ([2]; 0.06% of diet): 2.02 ± 0.09^a g/100 g BW
- hepatic apoB mRNA, linear contrasts (P≦0.05) [3]: atorvastatin>lovastatin; also recorded: atorvastatin>simvastatin
- Yolk cholesterol content, mg cholesterol/g yolk (laying hens [4]; 0.03% of diet, Week 0): 11.4 ± 0.3^a mg cholesterol/g yolk
- Yolk cholesterol content, mg cholesterol/yolk (laying hens [4]; 0.03% of diet, Week 0): 203.2 ± 7.7^a mg cholesterol/yolk
- Yolk cholesterol content, mg cholesterol/g yolk (laying hens [4]; 0.03% of diet, Week 1): 9.4 ± 0.3^c mg cholesterol/g yolk
- Yolk cholesterol content, mg cholesterol/yolk (laying hens [4]; 0.03% of diet, Week 1): 161.7 ± 5.5^b,c mg cholesterol/yolk
- Yolk cholesterol content, mg cholesterol/g yolk (laying hens [4]; [6]): 9.4 mg cholesterol/g yolk
- Yolk cholesterol content, mg cholesterol/yolk (laying hens [4]; [6]): 161.7 mg cholesterol/yolk
- Yolk cholesterol content, mg cholesterol/g yolk (laying hens [4]; 0.03% of diet, Week 2): 8.7 ± 0.2^e mg cholesterol/g yolk
- Yolk cholesterol content, mg cholesterol/g yolk (laying hens [4]; 0.03% of diet, Week 3): 8.6 ± 0.2^e mg cholesterol/g yolk
- Yolk cholesterol content, mg cholesterol/yolk (laying hens [4]; 0.03% of diet, Week 3): 143.7 ± 3.3^c mg cholesterol/yolk
- Yolk cholesterol content, mg cholesterol/g yolk (laying hens [4]; 0.03% of diet, Week 4): 8.3 ± 0.1^d mg cholesterol/g yolk
- Yolk cholesterol content, mg cholesterol/yolk (laying hens [4]; 0.03% of diet, Week 4): 134.4 ± 2.2^c mg cholesterol/yolk
- Yolk cholesterol content, mg cholesterol/g yolk (laying hens [4]; 0.03% of diet, Week 5): 8.2 ± 0.2^d mg cholesterol/g yolk
- Yolk cholesterol content, mg cholesterol/yolk (laying hens [4]; 0.03% of diet, Week 5): 137.2 ± 3.8^d mg cholesterol/yolk
- Yolk cholesterol content, mg cholesterol/yolk (laying hens [4]; 0.03% of diet, Week 5, listed as atorvastatin): 137.2 mg cholesterol/yolk
- Yolk cholesterol content, mg cholesterol/g yolk (laying hens [4]; 0.06% of diet, Week 0): 11.3 ± 0.3^a mg cholesterol/g yolk
- Yolk cholesterol content, mg cholesterol/yolk (laying hens [4]; 0.06% of diet, Week 0): 191.9 ± 7.3^a mg cholesterol/yolk
- Yolk cholesterol content, mg cholesterol/g yolk (laying hens [4]; 0.06% of diet, Week 1): 9.3 ± 0.2^c mg cholesterol/g yolk
- Yolk cholesterol content, mg cholesterol/yolk (laying hens [4]; 0.06% of diet, Week 1): 149.7 ± 3.8^c mg cholesterol/yolk
- Yolk cholesterol content, mg cholesterol/g yolk (laying hens [4]; [7]): 9.3 mg cholesterol/g yolk
- Yolk cholesterol content, mg cholesterol/yolk (laying hens [4]; [7]): 149.7 mg cholesterol/yolk
- Yolk cholesterol content, mg cholesterol/g yolk (laying hens [4]; 0.06% of diet, Week 2): 7.8 ± 0.3^f mg cholesterol/g yolk
- Yolk cholesterol content, mg cholesterol/yolk (laying hens [4]; 0.06% of diet, Week 2): 105.3 ± 4.3^d mg cholesterol/yolk
- Yolk cholesterol content, mg cholesterol/yolk (laying hens [4]; 0.06% of diet, Week 2, listed as atorvastatin): 105.3 mg cholesterol/yolk
- Yolk cholesterol content, mg cholesterol/g yolk (laying hens [4]; 0.06% of diet, Week 3): 7.5 ± 0.1^f mg cholesterol/g yolk
- Yolk cholesterol content, mg cholesterol/yolk (laying hens [4]; 0.06% of diet, Week 3): 104.0 ± 3.7^d mg cholesterol/yolk
- Yolk cholesterol content, mg cholesterol/g yolk (laying hens [4]; 0.06% of diet, Week 4): 7.5 ± 0.1^e mg cholesterol/g yolk
- Yolk cholesterol content, mg cholesterol/yolk (laying hens [4]; 0.06% of diet, Week 4): 104.2 ± 2.3^d mg cholesterol/yolk
- Yolk cholesterol content, mg cholesterol/g yolk (laying hens [4]; 0.06% of diet, Week 5): 7.6 ± 0.2^d mg cholesterol/g yolk
- yolk cholesterol reduction from control on a per yolk (egg) basis (laying hens [4]; [8]): 46%
- yolk cholesterol reduction from control per g of yolk (mg/g basis) (laying hens [4]; [8]): 35%
- less total yolk cholesterol than control eggs (laying hens [4]; high dose (0.06%)): 45%
- less total yolk cholesterol than control eggs (laying hens [4]; low dose (0.03%)): 27%
- Egg weight, g (laying hens [5]; [9]): 61.3 ± 1.0^a,b (132) g
- Hen-day egg production, % (laying hens [5]; [9]): 75.4 ± 4.1^b,c (132) %
- Yolk weight, g (laying hens [5]; [9]): 16.6 ± 0.1^a (25) g
- Egg weight, g (laying hens [5]; 0.03% of diet, Week 1): 63.0 ± 0.7^a g
- Hen-day egg production, % (laying hens [5]; 0.03% of diet, Week 1): 82.9 ± 1.8^c,d %
- Yolk weight, g (laying hens [5]; 0.03% of diet, Week 1): 17.2 ± 0.3^a g
- Egg weight, g (laying hens [5]; 0.03% of diet, Week 2): 61.2 ± 0.8^c,d g
- Hen-day egg production, % (laying hens [5]; 0.03% of diet, Week 2): 68.6 ± 1.0^c %
- Yolk weight, g (laying hens [5]; 0.03% of diet, Week 2): 16.2 ± 0.3^a g
- Egg weight, g (laying hens [5]; 0.03% of diet, Week 3): 60.5 ± 0.8^c g
- Hen-day egg production, % (laying hens [5]; 0.03% of diet, Week 3): 80.0 ± 2.0^b %
- Yolk weight, g (laying hens [5]; 0.03% of diet, Week 3): 16.7 ± 0.4^a g
- Hen-day egg production, % (laying hens [5]; 0.03% of diet, Week 4): 77.1 ± 1.2^c %
- Yolk weight, g (laying hens [5]; 0.03% of diet, Week 4): 16.2 ± 0.2^b g
- Egg weight, g (laying hens [5]; 0.03% of diet, Week 5): 61.0 ± 0.7^b g
- Hen-day egg production, % (laying hens [5]; 0.03% of diet, Week 5): 77.1 ± 1.2^c,d %
- Yolk weight, g (laying hens [5]; 0.03% of diet, Week 5): 16.6 ± 0.3^a g
- Egg weight, g (laying hens [5]; [10]): 58.9 ± 0.9^b (121) g
- Hen-day egg production, % (laying hens [5]; [10]): 69.1 ± 3.5^c (121) %
- Yolk weight, g (laying hens [5]; [10]): 14.3 ± 0.2^b (25) g
- Egg weight, g (laying hens [5]; 0.06% of diet, Week 1): 63.6 ± 0.8^a g
- Hen-day egg production, % (laying hens [5]; 0.06% of diet, Week 1): 82.9 ± 1.0^c,d %
- Yolk weight, g (laying hens [5]; 0.06% of diet, Week 1): 16.1 ± 0.3^a g
- Egg weight, g (laying hens [5]; 0.06% of diet, Week 2): 59.5 ± 1.0^d g
- Hen-day egg production, % (laying hens [5]; 0.06% of diet, Week 2): 60.0 ± 1.8^d %
- Yolk weight, g (laying hens [5]; 0.06% of diet, Week 2): 13.4 ± 0.3^b g
- Egg weight, g (laying hens [5]; 0.06% of diet, Week 3): 56.9 ± 0.7^d g
- Hen-day egg production, % (laying hens [5]; 0.06% of diet, Week 3): 68.6 ± 1.8^c %
- Yolk weight, g (laying hens [5]; 0.06% of diet, Week 3): 13.9 ± 0.5^b g
- Egg weight, g (laying hens [5]; 0.06% of diet, Week 4): 56.8 ± 0.7^e g
- Hen-day egg production, % (laying hens [5]; 0.06% of diet, Week 4): 68.6 ± 1.8^d %
- Yolk weight, g (laying hens [5]; 0.06% of diet, Week 4): 13.9 ± 0.3^c g
- Egg weight, g (laying hens [5]; 0.06% of diet, Week 5): 57.8 ± 0.7^c g
- Hen-day egg production, % (laying hens [5]; 0.06% of diet, Week 5): 74.3 ± 1.0^d %
- Yolk weight, g (laying hens [5]; 0.06% of diet, Week 5): 14.2 ± 0.4^b g
- decrease in yolk weight (laying hens [5]; 0.06% of diet, Week 5): 19%
